Experiments:
[1] = test system: oxidative stress markers (MDA, SOD, GSH, GSH-Px) in the small intestine; assay: Intestinal MDA, SOD, GSH and GSH-Px (commercial assay kits) after X-ray irradiation; type: in vivo, Sprague Dawley (SD) rats; settings: SD rats, 8 Gy abdominal X-ray, small intestine 48 h after, mean ± S.D., n = 10
Source text: (§1) Sixty adult male Sprague Dawley (SD) rats weighing 220–250 g were included in our study. Rats were subjected to 1 week of preliminary conditioning, during which time they received standard pellet rat chow and water ad libitum. They were housed in a temperature-and humidity-controlled environment, two animals per cage, with a 12-h light/12-h dark cycle. The Principles of Laboratory Animal Care (NIH Publication 85e23, revised 1996) were followed. Animal study protocols were approved by the Ethics Committee of the Fourth Military Medical University. The experiment was carried out at the Department of Pharmacy, Tangdu Hospital, Fourth Military Medical University.
(§2) X-ray irradiation was performed using a linear accelerator (Siemens primask) adjusted to provide X-ray irradiation, and carried out at the Department of Radiology and Oncology at the Tangdu Hospital. All of the animals were anesthetized with an intramuscular injection of pentobarbital sodium (100 mg/kg) and subjected to a single dose of 8 Gy abdominal X-radiation. The dose was delivered at a rate of 400 monitor units/min (1100 rad, 116.5 cGy/min, 100 cm source–skin distance) using a conventional radiation source, while the other parts of the body were carefully shielded.
Rats were randomized into six groups (Groups A–F). […] The remaining rats were subjected to a single dose of 8 Gy of abdominopelvic X-radiation and randomized further into five groups (Groups B–F). […] Briefly, rats were anesthetized with 100 mg/kg pentobarbital sodium, positioned supine, and subjected to a single fraction of 8 Gy delivered at a specific depth through abdominopelvic fields using X-rays at the rate of 0.74 Gy/min, while the other parts of the body were carefully shielded. Radiated rats were allowed to recover from the anesthetic and GLP-2 or Mono-PEG-hGLP-2 was administered by intraperitoneal injection. • Group A: non-X-ray irradiated (control). • Group B: X-ray irradiated. • Group C: pretreated with 3 μg of Mono-PEG-hGLP-2 in 0.3 ml of saline 5 min before X-ray irradiation. • Group D: pretreated with 10 μg of Mono-PEG-hGLP-2 in 0.3 ml of saline 5 min before X-ray irradiation. • Group E: pretreated with 30 μg of Mono-PEG-hGLP-2 in 0.3 ml of saline 5 min before X-ray irradiation. • Group F: pretreated with 30 μg of GLP-2 in 0.3 ml of saline 5 min before X-ray irradiation.
Malondialdehyde (MDA) levels, glutathione (GSH) content, and the activities of super oxide-dismutase (SOD) and glutathione peroxidase (GPx) were determined in the small intestine using commercial assay kits (Biyuntian Co., China) according to the manufacturer’s protocols. The protein content ratio was determined by Pierce™ BCA Protein Assay Kit (Thermo Fisher Scientific Inc., Rockford, IL, USA). All of the values were normalized to total intestinal protein. Small intestine tissue (20 mg) was homogenized in lysis buffer (150 mM NaCl, 0.1% SDS, 0.1% NP-40, 20 mM Tris-HCl pH 7.5) and protease inhibitor cocktail using a Tissue Lyser II homogenizer (Qiagen; Hilden, Germany). Total protein concentrations of tissue homogenates were detected by a Pierce™ BCA Protein Assay Kit (Thermo Scientific; Rockford, IL, USA). The levels of tumor necrosis factor-alpha (TNF-α) (Invitrogen; Carlsbad, CA, USA) and interleukin-2 (IL-2) (Bioo Scientific; Austin, TX, USA) in the tissue samples were determined using commercially available sandwich ELISA kits, according to the protocol recommended by the manufacturer. Results were recorded as the ratio of detected protein (TNF-α, IL-2) (pg/ml) to the amount of total protein (mg/ml).

[2] = test system: NF-κB; assay: NF-κB expression in intestine (immunohistochemistry and Western blot) after X-ray irradiation; type: in vivo, Sprague Dawley (SD) rats; settings: SD rats, 8 Gy abdominal X-ray
Source text: as §1, §2
Rats were randomized into six groups (Groups A–F). […]
The expression of NF-κB was analyzed by Western blotting. […]

[3] = 3 μg i.p. 5 min before irradiation
[4] = 10 μg i.p. 5 min before irradiation
[5] = 30 μg i.p. 5 min before irradiation

Mono-PEG-hGLP-2: human GLP-2 peptide conjugated to one 5 kDa mPEG chain by reaction with mPEG5k-SPA
Intestinal GSH-Px activity [1, 3]: 331.2 ± 22.1 U/mg prot
Intestinal SOD activity [1, 3]: 40.47 ± 5.41 U/mg prot
Intestinal content of GSH [1, 3]: 20.22 ± 4.87 mg/g prot
Intestinal content of MDA [1, 3]: 5.27 ± 0.44 nmol/mg prot
Intestinal GSH-Px activity [1, 4]: 367.5 ± 42.3 U/mg prot
Intestinal SOD activity [1, 4]: 47.45 ± 8.24 U/mg prot
Intestinal content of GSH [1, 4]: 24.70 ± 10.22 mg/g prot
Intestinal content of MDA [1, 4]: 4.48 ± 0.37 nmol/mg prot
Intestinal GSH-Px activity [1, 5]: 412.7 ± 65.7 U/mg prot
Intestinal SOD activity [1, 5]: 56.11 ± 6.01 U/mg prot
Intestinal content of GSH [1, 5]: 24.01 ± 4.17 mg/g prot
Intestinal content of MDA [1, 5]: 4.01 ± 0.22 nmol/mg prot
NF-κB staining in intestine versus X-ray-alone-treated rats ([2]; 3, 10, 30 μg i.p. 5 min before irradiation, immunohistological staining): decreased NF-κB staining in a dose-dependent manner
NF-κB expression in intestine versus model ([2]; moderate to high doses (10, 30 μg i.p.) before irradiation, P < 0.01): significantly inhibited NF-κB expression

From publication PMC6373673, “Purified PEGylated human glucagon-like peptide-2 reduces the severity of irradiation-induced acute radiation enteritis in rats” (Journal of Radiation Research, 2018)
